According to ChEMBL document CHEMBL1201862, “PubChem BioAssay data set” (2004):
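All cell lines were grown in 96-well plates and treated with compound for 48 hours. At the GI50, growth is halved.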 Active and inactive are the calls of the source. Rule as the data show it: active = GI50 up to about 1.1 µM and inactive = higher.

How the values were obtained:
Assay in all cases: NCI anticancer screen, dose series, 48 h
[1] = test system: A498
[2] = test system: ACHN
[3] = test system: DMS-114
[4] = test system: HCT-15
[5] = test system: KM-20L2
[6] = test system: KM12
[7] = test system: MOLT-4
[8] = test system: OVCAR-3
[9] = test system: SK-MEL-28
[10] = test system: SK-MEL-5
[11] = test system: SK-OV-3
[12] = test system: TK-10
[13] = test system: U-251
[14] = test system: NCI-H522
[15] = test system: SW-620
[16] = test system: BT-549
[17] = test system: MDA-MB-435
[18] = test system: MDA-N
[19] = test system: NCI/ADR-RES
[20] = test system: T47D

Measured: GI50

Cc1cc(C)nc(NS(=O)(=O)c2ccc(Nc3c4ccccc4nc4c(C(=O)N5CCN(CCOS(C)(=O)=O)CC5)ccc(Cl)c34)cc2)n1
inactive: [1] > 100 µM | [2] > 100 µM | [3] > 100 µM | [5] > 100 µM | [6] > 100 µM | [7] > 100 µM | [8] > 100 µM | [9] > 100 µM | [10] > 100 µM | [11] > 100 µM | [12] 54.1 µM | [13] > 100 µM
> 100 µM: [4]

Cn1c2c([N+](=O)[O-])[se]nc2c(=O)n1-c1ccc([N+](=O)[O-])cc1
1.25 µM: [4]
inactive: [1] 11.4 µM | [2] 1.95 µM | [5] 6.9 µM | [6] 4.51 µM | [14] 1.7 µM | [8] 1.73 µM | [9] 2.11 µM | [10] 4.43 µM | [11] 2.72 µM | [12] 7.55 µM | [13] 2.51 µM
active: [3] 0.254 µM | [15] 0.357 µM

COc1c2c(cc3c1OCO3)C13C=CC(OC)CC1N(CC3)C2.[O-][Cl+3]([O-])([O-])O (stereo not drawn)
28.4 µM: [4]
inactive: [1] > 100 µM | [2] > 100 µM | [16] > 100 µM | [6] 51.1 µM | [17] 34.3 µM | [18] 37.3 µM | [7] 36.4 µM | [14] > 100 µM | [19] > 100 µM | [8] > 100 µM | [9] > 100 µM | [10] 29 µM | [11] > 100 µM | [15] > 100 µM | [20] > 100 µM | [12] > 100 µM | [13] > 100 µM

CCCc1onc(CCC(=O)N(Cc2ccccc2)Cc2ccccc2)c1CC
inactive: [1] > 100 µM | [2] > 100 µM | [3] > 100 µM | [5] > 100 µM | [6] > 100 µM | [7] > 100 µM | [14] > 100 µM | [8] > 100 µM | [11] > 100 µM | [13] > 100 µM
> 100 µM: [4]

COc1cc(CCc2ccc(OCCN(C)C)cc2)cc(OC)c1OC
> 100 µM: [4]
inactive: [1] 76 µM | [2] > 100 µM | [3] 47.8 µM | [5] 76.9 µM | [6] > 100 µM | [7] 32.6 µM | [14] 83.8 µM | [8] 64.1 µM | [9] > 100 µM | [10] 24.1 µM | [15] > 100 µM | [12] 78.9 µM | [13] > 100 µM

C/C(=C/C(=O)N(C)c1ccccc1Cl)O[Si](C(C)C)(C(C)C)C(C)C
18.2 µM: [4]
inactive: [1] > 10 µM | [2] > 10 µM | [16] 22.5 µM | [6] 32.4 µM | [17] 32.1 µM | [18] 21.3 µM | [7] 40.4 µM | [14] 15.4 µM | [19] 19.9 µM | [8] 18.2 µM | [9] 32.8 µM | [10] 16.4 µM | [11] 34.2 µM | [15] 19.4 µM | [20] 31.3 µM | [12] 33.5 µM | [13] 20 µM

Clc1ccc(-c2nn3c(COc4ccc(OCc5nnc6sc(-c7ccc(Cl)cc7)nn56)c(Cl)c4)nnc3s2)cc1
28 µM: [4]
inactive: [1] 32.7 µM | [2] 44.2 µM | [16] 18.9 µM | [6] 29.4 µM | [17] 33.7 µM | [18] 22 µM | [7] 20.5 µM | [14] 15.6 µM | [19] 27.7 µM | [8] 45.4 µM | [9] 31.3 µM | [10] 20.9 µM | [11] 27.3 µM | [15] 24 µM | [20] 36.5 µM | [12] 17.5 µM | [13] 21.8 µM

O=S(=O)(O)SCCNCCCCCC1CCCCC1
inactive: [1] 25.1 µM | [2] 16.1 µM | [16] 14.9 µM | [6] 2.79 µM | [17] 3.44 µM | [18] 12.8 µM | [7] 8.05 µM | [14] 18.4 µM | [19] 16.7 µM | [8] 5.87 µM | [9] 4.26 µM | [10] 15.8 µM | [11] 15.7 µM | [15] 7.78 µM | [20] 13.6 µM | [12] 9.38 µM | [13] 5.46 µM
8.77 µM: [4]

Cc1cc(N(CCC#N)CCC#N)ccc1/C=C(\NC(=O)/C=C/c1ccccc1)NC(=O)Nc1ccccc1C
inactive: [1] 65.3 µM | [2] 55.3 µM | [3] 89.7 µM | [5] > 100 µM | [6] > 100 µM | [7] > 100 µM | [8] > 100 µM | [9] > 100 µM | [10] 61 µM | [15] > 100 µM | [13] 17.1 µM
> 100 µM: [4]

CC1=C(Oc2ccccc2)C(CCC(=O)O)c2c(O)cc(Cl)c(O)c21 (stereo not drawn)
inactive: [1] > 100 µM | [3] > 100 µM | [5] > 100 µM | [6] > 100 µM | [7] > 100 µM | [14] > 100 µM | [8] > 100 µM | [9] > 100 µM | [10] > 100 µM | [15] > 100 µM | [12] > 100 µM | [13] > 100 µM
> 100 µM: [4]

O=C(O)CC(Cc1ccc2c(c1)OCO2)C(=O)O (stereo not drawn)
> 100 µM: [4]
inactive: [1] > 100 µM | [2] > 100 µM | [16] > 100 µM | [6] > 100 µM | [17] > 100 µM | [18] > 100 µM | [7] > 100 µM | [14] > 100 µM | [19] > 100 µM | [8] > 100 µM | [9] > 100 µM | [10] > 100 µM | [11] > 100 µM | [15] > 100 µM | [20] > 100 µM | [12] > 100 µM | [13] > 100 µM

COc1cc(/C=C/C(=N\NC(N)=S)c2sc(NNC(C)=O)nc2C)ccc1O
> 100 µM: [4]
inactive: [1] > 100 µM | [2] > 100 µM | [16] > 100 µM | [6] > 100 µM | [17] > 100 µM | [18] > 100 µM | [7] > 100 µM | [14] > 100 µM | [19] > 100 µM | [8] > 100 µM | [9] > 100 µM | [10] > 100 µM | [11] > 100 µM | [15] > 100 µM | [20] > 100 µM | [12] > 100 µM | [13] > 100 µM

O=C(Cc1ccccc1)NN1C(=O)C(Cl)C1c1ccccc1 (stereo not drawn)
inactive: [2] > 100 µM | [3] 33.9 µM | [5] > 100 µM | [6] 66.4 µM | [7] 23 µM | [14] 2.05 µM | [8] 37.2 µM | [9] > 100 µM | [10] 74.1 µM | [11] > 100 µM | [15] > 100 µM | [12] > 100 µM | [13] > 100 µM
> 100 µM: [4]

O=C(O)CCC(=O)N1c2ccccc2CC1c1c[nH]c2ccccc12 (stereo not drawn)
inactive: [1] > 100 µM | [2] > 100 µM | [3] > 100 µM | [5] > 100 µM | [6] 65.6 µM | [7] > 100 µM | [14] 76.6 µM | [8] > 100 µM | [9] > 100 µM | [10] > 100 µM | [11] > 100 µM | [15] > 100 µM | [12] > 100 µM | [13] > 100 µM
> 100 µM: [4]

Cc1c2ccccc2nc2[nH]c3ccncc3c12
inactive: [1] 42.9 µM | [2] 18.7 µM | [16] 40.6 µM | [6] 26.6 µM | [17] 33 µM | [18] 35 µM | [7] > 100 µM | [14] 36.1 µM | [19] 23.9 µM | [8] 30.3 µM | [9] 70.6 µM | [10] 29.4 µM | [11] 50 µM | [15] 23.9 µM | [20] 33.7 µM | [12] 19.3 µM | [13] 30.1 µM
26.5 µM: [4]

CCCCCCCCCCCCCCCCNCCCN(C)CCCN
17.2 µM: [4]
inactive: [1] 18.2 µM | [2] 19.4 µM | [3] 16.6 µM | [5] 18.2 µM | [6] 18.4 µM | [7] 28.8 µM | [14] 17.3 µM | [8] 19.5 µM | [9] 13.4 µM | [10] 16 µM | [11] 17.3 µM | [15] 18.5 µM | [12] 15 µM | [13] 17.3 µM

COC(=O)C1(NC(=O)C(CC(=O)OCc2ccccc2)NC(=O)OCc2ccccc2)CCCCCCC1 (stereo not drawn)
30.3 µM: [4]
inactive: [1] 13.6 µM | [2] 34.4 µM | [16] 23.9 µM | [6] 48.3 µM | [17] 29.9 µM | [18] 28.6 µM | [7] 4.69 µM | [14] 13 µM | [19] 19.3 µM | [8] 60.1 µM | [9] 8.69 µM | [10] 13.8 µM | [11] 40 µM | [15] 31.3 µM | [20] 17.6 µM | [12] 47.4 µM | [13] 47.2 µM

c1ccc(CN[C@]23C4C5CC6C7C5C2C7[C@@](NCc2ccccc2)(C64)N3Cc2ccccc2)cc1 (stereo partly drawn)
> 100 µM: [4]
inactive: [1] > 100 µM | [2] > 100 µM | [16] > 100 µM | [6] > 100 µM | [17] > 100 µM | [18] > 100 µM | [7] > 100 µM | [14] 91.8 µM | [19] > 100 µM | [8] > 100 µM | [9] > 100 µM | [10] > 100 µM | [11] > 100 µM | [15] > 100 µM | [20] > 100 µM | [12] > 100 µM | [13] > 100 µM
